Data as given in US6638928B1, “Treatment of irritable bowel syndrome and nonulcer dyspepsia with substituted 2,3-benzodiazepines” (Vela Pharmaceuticals, Inc., priority 2002, dated 2003).

Assays:
[1] = test system: colonic propulsive motility; assay: Glass bead test of colonic propulsive motility in mice; type: in vivo, mouse; settings: 32 mg/kg IP; for Expulsion Time Mean ± SEM: 3 mm glass bead inserted 30 minutes after dosing, cut-off time 30 minutes, 10 per group; for Expulsion Time Mean ± SEM / inhibition at 32 mg/kg: female Swiss Webster mice; for inhibition at 32 mg/kg: Mus musculus, inhibition of bead expulsion vs vehicle; for inhibition of colonic propulsion (in words): summary of Table 1 data, mice
Source text: This model is predictive of agents that may be used to treat the alterations in propulsion of intestinal contents that occur in individuals diagnosed with IBS. The model is very sensitive to test compounds producing inhibitory effects on propulsive motor activity, but is not sensitive to test articles increasing colonic propulsive motility. The model provides a direct measure of colonic propulsion. Thus, a test compound that slows the rate at which a glass bead is expelled, is predicted to have utility in the treatment of IBS,
This test is also used to evaluate test articles with potential to produce constipation, antidiarrheal activity, or have selective visceral anti-nociceptive activity in addition to being used as an animal model for irritable bowel syndrome.
For the present example, seventy test animals (female, 6 week old Swiss Webster mice, 18-30 g) were divided into 7 groups of 10 animals each for administration of six test compounds and vehicle alone as a control.
Each animal was dosed (IP) with either a compound of formula I, one of two related 2,3-benzodiazepines or vehicle alone. Thirty minutes after dosing, a 3 mm glass bead was inserted through the anus to a depth of 2 cm into the distal colon using a glass rod. […] Any test animal that had not expelled the bead within a cut-off time of 30 minutes was sacrificed and the position of the bead in the lumen of the colon was verified.
Such observations included gross evaluation of skin and fur, eyes and mucous membranes, respiratory, circulatory, autonomic and central nervous system, somatomotor activity and behavioral patterns. Particular attention was directed to observation of tremors, convulsions, salivation, diarrhea, sleep and coma. No signs of gross toxicity were observed. Mean and standard error of the mean were calculated for the expulsion times for each group.

peripheral BZ receptors = peripheral BZ receptors (Homo sapiens, UniProt P30536); settings: cited from earlier work
central BZ receptors = settings: cited from earlier work
aggression in mice = settings: cited from earlier work
muricide in rats = settings: cited from earlier work
[2] = test system: anti-noradrenergic effects; settings: cited from earlier work
narcosis in mice = settings: cited from earlier work

Chain of peripheral BZ receptors (P30536 whole entry): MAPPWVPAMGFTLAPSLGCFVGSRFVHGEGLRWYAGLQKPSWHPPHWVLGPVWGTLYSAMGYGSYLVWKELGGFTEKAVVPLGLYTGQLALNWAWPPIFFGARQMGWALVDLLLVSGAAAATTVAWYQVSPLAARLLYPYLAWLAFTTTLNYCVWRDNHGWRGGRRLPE

Structure (SMILES) | Expulsion Time Mean ± SEM [1] | inhibition at 32 mg/kg [1] [%] | inhibition of colonic propulsion (in words) [1] | binding to peripheral BZ receptors (peripheral BZ receptors) | interaction with central BZ receptors (central BZ receptors) | inhibition of aggression (aggression in mice) [%] | inhibition of muricide (muricide in rats) [%] | anti-noradrenergic effects [2] | narcosis-potentiating activity (narcosis in mice)
CCC1C(C)=NN=C(c2ccc(OC)c(OC)c2)c2cc(O)c(OC)cc21 (racemic) [Compound 2, 1-(3,4-dimethoxyphenyl)-4-methyl-5-ethyl-7-methoxy-8-hydroxy-5H-2,3-benzodiazepine] | 17.2 ± 3.5 | 23 |  |  |  |  |  |  | 
CCC1C(C)=NN=C(c2ccc(OC)c(O)c2)c2cc(OC)c(OC)cc21 (racemic) [Compound 4, 1-(3-hydroxy-4-methoxyphenyl)-4-methyl-5-ethyl-7,8-dimethoxy-5H-2,3-benzodiazepine] | 20.3 ± 3.5 | 42 | substantial inhibition of colonic propulsion |  |  |  |  |  | 
CCC1C(C)=NN=C(c2ccc(OC)c(OC)c2)c2cc(OC)c(OC)cc21 (racemic) [tofisopam, 1-(3,4-dimethoxyphenyl)-4-methyl-5-ethyl-7,8-dimethoxy-5H-2,3-benzodiazepine] |  |  |  | binds only weakly | does not interact |  |  |  | 
CCC1C(C)=NN=C(c2ccc(OC)c(OC)c2)c2cc(OC)c(O)cc21 (centres unmarked) [Compound 1, 1-(3,4-dimethoxyphenyl)-4-methyl-5-ethyl-7-hydroxy-8-methoxy-5H-2,3-benzodiazepine] | 6.9 ± 3.7 | 22 |  |  |  | 0 | 20 | no effect | 
CCC1C(C)=NN=C(c2ccc(O)c(OC)c2)c2cc(OC)c(OC)cc21 (centres unmarked) [Compound 3, 1-(3-methoxy-4-hydroxyphenyl)-4-methyl-5-ethyl-7,8-dimethoxy-5H-2,3-benzodiazepine] | 20.0 ± 3.1 | 40 | substantial inhibition of colonic propulsion |  |  | 0 | 0 | measurable activity | narcosis-potentiating activity
CCC1C(C)=NN=C(c2ccc(O)c(OC)c2)c2cc(OC)c(O)cc21 (centres unmarked) [Compound 5, 1-(3-methoxy-4-hydroxyphenyl)-4-methyl-5-ethyl-7-hydroxy-8-methoxy-5H-2,3-benzodiazepine, reference compound] | 12.0 ± 3.2 | 0 |  |  |  | 28.6 | 20 | measurable activity | 
CCC1C(C)=NN=C(c2ccc(OC)c(O)c2)c2cc(OC)c(O)cc21 (centres unmarked) [Compound 6, 1-(3-hydroxy-4-methoxyphenyl)-4-methyl-5-ethyl-7-hydroxy-8-methoxy-5H-2,3-benzodiazepine, reference compound] | 10.7 ± 3.4 | 0 |  |  |  |  |  |  | 
